Data taken from patent publication US20030186370A1, “5ht3 receptors of nematodes, polynucleotide molecules encoding same, and antagonists thereof” (priority 2000, published 2003).
Where two headings read alike, the source gives them in different places.

Experiments:
Myzus persicae = test: Green Peach Aphid artificial diet sachet bioassay, growth and survival; format: in vivo; conditions: for Mean number of surviving aphids (out of 5) / Mean relative growth rate of survivors: after 5 days
Procedure: The effects of MDL 72222 on Green Peach Aphid (Myzus persicae) was also tested. The bioassay involved testing compounds at 3 different concentrations (1 mM, 100 μM, 10 μM) in an artificial diet. Compounds that were not water-soluble were forced into solution using a non-toxic surfactant. For each compound, each concentration was tested in 10 replicate assays. In each replicate, 5 aphids were allowed to feed on the test solution in a Parafilm® sachet for a period of 5 days. Survivorship and aphid growth rate were compared among the test concentrations and a control containing only the artificial diet with surfactant.

C. elegans [1] = test: Chronic exposure protocol: nematode growth and survival on NGM agar containing the compound; format: in vivo; conditions: for mortality at 5 µM / mortality at 10 µM / mortality at 20 µM / mortality at 40 µM / mortality at 81 µM / mortality at 162 µM / mortality at 325 µM: Caenorhabditis elegans
Procedure: Because the pharyngeal pump is essential for nematode feeding and the maintenance of the nematode “hydrostatic skeleton” [Brownlee, D. J. A. et al. 1997, supra] and a previously established target organ for nematicides, an investigation was conducted to assess whether the 5-HT3-selective antagonists would function as nematicidal agents in a chronic exposure protocol.
C. elegans nematodes were cultured on the HMS/174 strain of E. coli [Campbell, J. L. et al. 1978. Genetic recombination and complementation between bacteriophage T7 and cloned fragments of T7 DNA. Proc. Natl. Acad. Sci. USA. 75: 2276-2280] on NGM agar [Sulston, J. and Hodgkin, J. 1988, supra] in the wells of six well tissue culture cluster, 2 ml agar per well. MDL72222 was incorporated into the agar at the specified concentrations using ≦65 μl of acetone as a carrier. A control well contained 65 μl of acetone only. Between five and 11 L1 stage C. elegans were transferred to each well and the wells were incubated at 22° C. for up to four weeks. All concentrations >10 μM MDL 72222 caused developmental delays. Concentrations of MDL 72222 down to 80 μM caused 40 % mortality within three days. […] The bacterial food therefore remained uneaten for prolonged periods.
Concentrations of MDL72222 down to 20 μM caused 90-100% mortality within 21 days and concentrations as low as 10 μM and 5 μM caused 50-100% mortality at 21 days. At the lowest concentrations of MDL72222, nematode death was delayed until after the bacterial food had been consumed. […] The experiment shown in Table 3 was repeated with essentially identical results.

C. elegans [2] = test: Dose-response of serotonin-stimulated pharyngeal pumping of C. elegans; format: in vivo; conditions: for IC50: in the presence of 0.325 mM serotonin (FIG. 2), read-out: IC50, inhibition of serotonin-stimulated pharyngeal pumping
Procedure: FIG. 1 provides dose-response curves for serotonin action on pharyngeal pumping. […] Any minor differences between the curves of FIGS. 1a and 1b are accounted for by the differences in experimental detail and the fact that in the microscopical assay, the rate of pumping is counted over a period of 1-3 minutes, whilst in the plate-based assays the fluorescence intensity represents the accumulation of ingested material over 60 minutes.
At this concentration of 5-HT, the IC50 for MDL72222 is approximately 30 μM, i.e. 10×lower than the EC50 for 5-HT.

Helicoverpa armigera = test: Growth of neonate H. armigera on surface-contaminated artificial diet; format: in vivo; conditions: for Mean weight of larva (mg) at 7 days: 24 larvae; for activity at 100 µM / activity at 1000 µM: Helicoverpa armigera, 168 h, read-out: % of control weight
C. elegans [3] = test: Effects of 5-HT receptor class-selective agonists and antagonists on C. elegans pharyngeal pumping and locomotion on agar; format: in vivo
Procedure: For the experiments described below C. elegans of the Bristol N2 strain (Brenner, S. 1974. The genetics of Caenorhabditis elegans, Genetics, 77: 71-94) were cultured at room temperature on HMS174 E. coli bacteria (Campbell J. L. et al. 1978. Genetic recombination and complementation between bacteriophage T7 and cloned fragments of T77 DNA. Proc. Natl. Acad. Sci. USA. 75: 2276-2280) on NGM agar (Sulston, J. and Hodgkin, J. 1988, “Methods” in The nematode Caenorhabditis elegans. W. B. Wood pp 587-606. Cold Spring Harbor Laboratory Press, New York) unless otherwise described.
Studies were therefore conducted wherein selective 5-HT1, 5-HT2 and 5-HT3 agonists were applied at known concentrations to agar on which C. elegans was held in the absence of food and the effects on movement and pharyngeal pumping monitored over a period of 2-3 hours.
Studies were also conducted to investigate the ability of selective vertebrate 5-HT3 antagonists to inhibit the 5-HT-induced increase in pharyngeal pumping.

[4] = tested on: snail 5-HT3-like ion channel; conditions: Green et al. 1996; read-out: IC50 on the snail 5-HT3-like ion channel / 5-HT gated conductance; cited from earlier work
[5] = 72 h, read-out: % Mortality - 3 days
[6] = 504 h, read-out: % Mortality - 21 days
[7] = 0.1 mM by surface contamination of diet
[8] = 1.0 mM by surface contamination of diet
[9] = Table 3 experiment, 0.325 mM antagonist plus 0.325 mM serotonin
[10] = Table 3 experiment, 0.325 mM, nothing else added
[11] = Table 2 experiment, 0.325 mM (each), nothing else added

With CN1[C@@H]2CC[C@H]1C[C@@H](OC(=O)c1cc(Cl)cc(Cl)c1)C2 [MDL 72222] the “Mean number of surviving aphids (out of 5)” value (from here on “Mean number”) (Myzus persicae; 0.01 mM in artificial diet) was 4.6, the “Mean relative growth rate of survivors” value (Myzus persicae; 0.01 mM in artificial diet) was 0.0339 and the “Mean number” value (Myzus persicae; 0.1 mM in artificial diet) was 3.4. For the same compound, the “Mean relative growth rate of survivors” value (Myzus persicae; 0.1 mM in artificial diet) was 0.0200, the “Mean number” value (Myzus persicae; 1 mM in artificial diet) was 0.9 and the “Mean relative growth rate of survivors” value (Myzus persicae; 1 mM in artificial diet) was 0.0383. For the same compound, the “Time to consumption of all bacteria” value (C. elegans [1]; 5 μM in agar) was 7 days, the “Time to consumption of all bacteria” value (C. elegans [1]; 10 μM in agar) was 8 days and the “Time to consumption of all bacteria” value (C. elegans [1]; 20 μM in agar) was 9 days. For the same compound, the “Time to consumption of all bacteria” value (C. elegans [1]; 40 μM in agar) was 10 days, the “Time to consumption of all bacteria” value (C. elegans [1]; 81 μM in agar) was 16 days and the “Time to consumption of all bacteria” value (C. elegans [1]; 162 μM in agar) was >28 days. The “Time to consumption of all bacteria” value (C. elegans [1]; 325 μM in agar) was >28 days, the mortality at 5 µM (C. elegans [1]; [5]) was 0% and the mortality at 10 µM (C. elegans [1]; [5]) was 0%. The mortality at 20 µM (C. elegans [1]; [5]) was 0%, the mortality at 40 µM (C. elegans [1]; [5]) was 0% and the mortality at 81 µM (C. elegans [1]; [5]) was 42%. The mortality at 162 µM (C. elegans [1]; [5]) was 64%, the mortality at 325 µM (C. elegans [1]; [5]) was 55% and the mortality at 5 µM (C. elegans [1]; [6]) was 100%. The mortality at 10 µM (C. elegans [1]; [6]) was > 50%, the mortality at 20 µM (C. elegans [1]; [6]) was 100% and the mortality at 40 µM (C. elegans [1]; [6]) was > 90%. For the same compound, the mortality at 81 µM (C. elegans [1]; [6]) was > 90%, the mortality at 162 µM (C. elegans [1]; [6]) was > 90% and the mortality at 325 µM (C. elegans [1]; [6]) was 100%. For the same compound, the “Concentrations that caused developmental delays” value (C. elegans [1]; L1 stage seeded, 22° C.) was > 10 µM, the IC50 (C. elegans [2]; Caenorhabditis elegans) was ~25 µM and the IC50 (C. elegans [2]) was ~30 µM. The “Mean weight of larva (mg) at 7 days” value (Helicoverpa armigera; [7]) was 51 mg, the “Mean weight of larva (mg) at 7 days” value (Helicoverpa armigera; [8]) was 54 mg and the activity at 100 µM (Helicoverpa armigera; 0.1 mM by surface contamination of diet, 7 days) was 70%. The activity at 1000 µM (Helicoverpa armigera; 1.0 mM by surface contamination of diet, 7 days) was 75%, the “Pumping rate (min-1) mean ± s.d.” value (C. elegans [3]; [9]) was 2 ± 2 min⁻¹ and the “Pumping rate (min-1) mean ± s.d.” value (C. elegans [3]; [10]) was 1 ± 1 min⁻¹.

For Cl.Clc1cccc(N2CCNCC2)c1 [m-CPP hydrochloride], the Effect on locomotion (C. elegans [3]; agonist 1 mM (each, if combined)) was “Locomotion inhibited”, the “Pumping rate (min-1) mean ± s.d.” value (C. elegans [3]; agonist 1 mM (each, if combined) in agar, absence of food, 2-3 hours) was 0 min⁻¹ and the Effect on locomotion (C. elegans [3]; agonist 6 mM (each, if combined)) was “Locomotion inhibited”. The “Pumping rate (min-1) mean ± s.d.” value (C. elegans [3]; agonist 6 mM (each, if combined) in agar, absence of food, 2-3 hours) was 0 min⁻¹.

In the case of Cc1[nH]c2ccc(O)cc2c1CCN.Cl [2-methyl-5-hydroxytryptamine hydrochloride], the Effect on locomotion (C. elegans [3]; agonist 3 mM) is reported as “Locomotion normal,” and the “Pumping rate (min-1) mean ± s.d.” value (C. elegans [3]; agonist 3 mM in agar, absence of food, 2-3 hours) is reported as 130 ± 27 min⁻¹.

In the case of NCCc1c[nH]c2ccc(O)cc12 [serotonin, 5-Hydroxytryptamine], the EC50 (C. elegans [2]; Caenorhabditis elegans, read-out: EC50 of 5-HT on pharyngeal pumping) is reported as ~325 µM, the “Mean weight of larva (mg) at 7 days” value (Helicoverpa armigera; [7]) is reported as 85 mg and the “Mean weight of larva (mg) at 7 days” value (Helicoverpa armigera; [8]) is reported as 85 mg. The activity at 100 µM (Helicoverpa armigera) was 116%, the activity at 1000 µM (Helicoverpa armigera) was 116% and the Effect on locomotion (C. elegans [3]; [11]) was “Nematodes moved normally”. For the same compound, the “Pumping rate (min-1) mean ± s.d.” value (C. elegans [3]; [11]) was 129 ± 6 min⁻¹, the Effect on locomotion (C. elegans [3]; [10]) was “Nematodes moved normally” and the “Pumping rate (min-1) mean ± s.d.” value (C. elegans [3]; [10]) was 54 ± 45 min⁻¹.

For Cc1nccn1CC1CCc2c(c3ccccc3n2C)C1=O (stereo not shown) [ondansetron], the “Effect on M. persicae” value (Myzus persicae; 1 mM, 100 μM, 10 μM in artificial diet, 5 days) is listed as “no discernible effect”, the IC50 [4] is listed as 10 µM and the “Effect on growth and development of neonate H. armigera” value (Helicoverpa armigera; artificial diet, surface contamination) is listed as “no discernible effect”. For the same compound, the Effect on locomotion (C. elegans [3]; [9]) was “Nematodes moved normally”, the “Pumping rate (min-1) mean ± s.d.” value (C. elegans [3]; [9]) was 32 ± 29 min⁻¹ and the Effect on locomotion (C. elegans [3]; [10]) was “Nematodes moved normally”. The “Pumping rate (min-1) mean ± s.d.” value (C. elegans [3]; [10]) was 0 ± 0 min⁻¹.
